Laboratory results from the kinase profiling compilation of Christmann-Franck et al. (2016).

What was measured:
Test in all cases: KINOMEscan competition binding
Conditions in all cases: compound 10.0 µM
ZAP70 (human) = ZAP70 (human) (UniProt P43403)
BRSK2 (human) = BRSK2 (human) (UniProt Q8IWQ3)
AAK1 (human) = AAK1 (human) (UniProt Q2M2I8)
SBK1 (human) = SBK1 (human) (UniProt Q52WX2)
GRK1 (human) = GRK1 (human) (UniProt Q15835)
MAPK12 (human) = MAPK12 (human) (UniProt P53778)
[1] = tested on: MET (human), P08581 [Y1235D]
KIT (human) = KIT (human) (UniProt P10721)
ERN1 (human) = ERN1 (human) (UniProt O75460)
EPHA6 (human) = EPHA6 (human) (UniProt Q9UF33)
PRKX (human) = PRKX (human) (UniProt P51817)
STK16 (human) = STK16 (human) (UniProt O75716)
[2] = tested on: EGFR (human), P00533 [G719S]
CAMK4 (human) = CAMK4 (human) (UniProt Q16566)
BMX (human) = BMX (human) (UniProt P51813)
DAPK3 (human) = DAPK3 (human) (UniProt O43293)
EPHA2 (human) = EPHA2 (human) (UniProt P29317)
[3] = tested on: EGFR (human), P00533 [L861Q]
CLK2 (human) = CLK2 (human) (UniProt P49760)
STK35 (human) = STK35 (human) (UniProt Q8TDR2)
HIPK2 (human) = HIPK2 (human) (UniProt Q9H2X6)
DMPK (human) = DMPK (human) (UniProt Q09013)
TNK2 (human) = TNK2 (human) (UniProt Q07912)
ACVR2B (human) = ACVR2B (human) (UniProt Q13705)
SGK110 (human) = SGK110 (human) (UniProt P0C264)
DCLK3 (human) = DCLK3 (human) (UniProt Q9C098)
SGK3 (human) = SGK3 (human) (UniProt Q96BR1)
PIP5K1C (human) = PIP5K1C (human) (UniProt O60331)
NEK1 (human) = NEK1 (human) (UniProt Q96PY6)
[4] = tested on: LRRK2 (human), Q5S007 [G2019S]
STK38L (human) = STK38L (human) (UniProt Q9Y2H1)
PKN2 (human) = PKN2 (human) (UniProt Q16513)
STK36 (human) = STK36 (human) (UniProt Q9NRP7)
CDKL1 (human) = CDKL1 (human) (UniProt Q00532)
PHKG1 (human) = PHKG1 (human) (UniProt Q16816)
FRK (human) = FRK (human) (UniProt P42685)
CDKL3 (human) = CDKL3 (human) (UniProt Q8IVW4)
EPHB4 (human) = EPHB4 (human) (UniProt P54760)
MAP2K2 (human) = MAP2K2 (human) (UniProt P36507)
MAP2K3 (human) = MAP2K3 (human) (UniProt P46734)
PHKG2 (human) = PHKG2 (human) (UniProt P15735)
FGR (human) = FGR (human) (UniProt P09769)

Chain of MAP2K3 (human) (P46734 whole entry, looked up): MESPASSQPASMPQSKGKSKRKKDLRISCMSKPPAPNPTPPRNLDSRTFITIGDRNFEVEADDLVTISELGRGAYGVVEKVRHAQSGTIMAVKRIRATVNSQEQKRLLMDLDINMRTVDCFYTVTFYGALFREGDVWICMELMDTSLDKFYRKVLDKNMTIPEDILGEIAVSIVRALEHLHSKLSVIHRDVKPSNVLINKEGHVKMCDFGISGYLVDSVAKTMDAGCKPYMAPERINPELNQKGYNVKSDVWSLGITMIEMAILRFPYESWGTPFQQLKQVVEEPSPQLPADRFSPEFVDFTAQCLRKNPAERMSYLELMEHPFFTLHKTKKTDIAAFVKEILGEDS
Chain of HIPK2 (human) (Q9H2X6 whole entry, looked up): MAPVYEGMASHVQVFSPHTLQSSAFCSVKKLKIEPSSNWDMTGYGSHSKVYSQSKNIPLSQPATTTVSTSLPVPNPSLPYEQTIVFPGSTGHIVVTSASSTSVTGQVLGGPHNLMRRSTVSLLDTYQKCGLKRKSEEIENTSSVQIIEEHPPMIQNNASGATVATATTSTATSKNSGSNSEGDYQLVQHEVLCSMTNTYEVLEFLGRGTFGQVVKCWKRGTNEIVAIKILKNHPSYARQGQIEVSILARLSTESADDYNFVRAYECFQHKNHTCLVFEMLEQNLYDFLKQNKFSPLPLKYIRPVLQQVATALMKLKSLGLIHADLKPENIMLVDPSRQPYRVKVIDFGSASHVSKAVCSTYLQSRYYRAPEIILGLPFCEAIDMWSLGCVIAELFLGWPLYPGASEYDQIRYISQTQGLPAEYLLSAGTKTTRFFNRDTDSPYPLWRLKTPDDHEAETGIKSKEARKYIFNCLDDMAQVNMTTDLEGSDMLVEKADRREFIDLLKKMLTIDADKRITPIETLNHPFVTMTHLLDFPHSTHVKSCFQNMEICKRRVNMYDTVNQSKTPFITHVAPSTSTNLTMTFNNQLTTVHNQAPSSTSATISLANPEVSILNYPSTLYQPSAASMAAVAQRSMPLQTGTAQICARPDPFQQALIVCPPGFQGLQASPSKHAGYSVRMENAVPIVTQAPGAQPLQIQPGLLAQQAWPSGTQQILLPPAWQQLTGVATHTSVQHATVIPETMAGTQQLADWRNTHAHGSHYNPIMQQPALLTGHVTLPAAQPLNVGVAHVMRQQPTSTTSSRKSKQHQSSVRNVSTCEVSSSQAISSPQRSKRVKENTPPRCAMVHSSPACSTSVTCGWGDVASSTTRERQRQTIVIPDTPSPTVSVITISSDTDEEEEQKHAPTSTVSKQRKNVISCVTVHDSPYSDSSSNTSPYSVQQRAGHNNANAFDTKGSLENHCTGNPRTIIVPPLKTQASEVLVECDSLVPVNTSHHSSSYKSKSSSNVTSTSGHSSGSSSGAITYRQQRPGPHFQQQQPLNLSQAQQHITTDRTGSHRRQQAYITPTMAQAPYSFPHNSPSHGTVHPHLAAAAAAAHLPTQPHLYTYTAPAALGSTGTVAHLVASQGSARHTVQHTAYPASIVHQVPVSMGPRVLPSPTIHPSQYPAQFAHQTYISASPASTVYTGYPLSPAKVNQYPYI
Chain of AAK1 (human) (Q2M2I8 whole entry, looked up): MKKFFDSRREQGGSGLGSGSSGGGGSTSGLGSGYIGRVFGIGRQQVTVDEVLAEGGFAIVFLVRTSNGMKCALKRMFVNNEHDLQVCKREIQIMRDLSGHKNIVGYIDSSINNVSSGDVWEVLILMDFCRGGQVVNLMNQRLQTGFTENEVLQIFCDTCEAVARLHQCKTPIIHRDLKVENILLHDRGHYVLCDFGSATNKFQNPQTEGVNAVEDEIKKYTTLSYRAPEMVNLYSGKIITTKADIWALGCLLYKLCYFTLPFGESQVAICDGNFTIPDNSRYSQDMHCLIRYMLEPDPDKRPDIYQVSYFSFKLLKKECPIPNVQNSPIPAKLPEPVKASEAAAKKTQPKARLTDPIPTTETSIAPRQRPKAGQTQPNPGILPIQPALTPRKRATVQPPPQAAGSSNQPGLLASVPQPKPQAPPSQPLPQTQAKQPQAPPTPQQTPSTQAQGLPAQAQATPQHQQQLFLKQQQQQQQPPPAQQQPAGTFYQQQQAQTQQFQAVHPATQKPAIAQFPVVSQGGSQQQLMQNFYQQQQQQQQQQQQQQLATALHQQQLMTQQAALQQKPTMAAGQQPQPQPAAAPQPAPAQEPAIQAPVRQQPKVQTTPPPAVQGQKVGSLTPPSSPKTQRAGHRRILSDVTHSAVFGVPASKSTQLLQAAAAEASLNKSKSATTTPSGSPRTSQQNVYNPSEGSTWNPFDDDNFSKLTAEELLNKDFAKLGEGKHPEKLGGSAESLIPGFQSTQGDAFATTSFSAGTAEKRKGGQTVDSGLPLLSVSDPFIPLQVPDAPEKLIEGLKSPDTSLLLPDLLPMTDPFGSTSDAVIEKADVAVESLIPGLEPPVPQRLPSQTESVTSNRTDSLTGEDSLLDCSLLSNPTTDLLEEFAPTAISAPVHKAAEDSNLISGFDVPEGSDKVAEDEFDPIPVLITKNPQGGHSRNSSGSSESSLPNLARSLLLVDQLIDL
Chain of MAPK12 (human) (P53778 whole entry, looked up): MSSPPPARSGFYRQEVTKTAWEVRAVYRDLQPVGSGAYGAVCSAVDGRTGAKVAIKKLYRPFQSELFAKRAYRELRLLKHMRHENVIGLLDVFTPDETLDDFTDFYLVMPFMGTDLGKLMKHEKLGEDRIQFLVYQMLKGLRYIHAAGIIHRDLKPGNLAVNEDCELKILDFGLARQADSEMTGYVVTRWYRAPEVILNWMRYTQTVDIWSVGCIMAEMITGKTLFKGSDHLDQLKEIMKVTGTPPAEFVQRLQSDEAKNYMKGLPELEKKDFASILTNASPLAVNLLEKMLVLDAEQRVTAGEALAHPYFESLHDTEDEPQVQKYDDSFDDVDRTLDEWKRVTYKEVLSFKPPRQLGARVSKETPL
Chain of MAP2K2 (human) (P36507 whole entry, looked up): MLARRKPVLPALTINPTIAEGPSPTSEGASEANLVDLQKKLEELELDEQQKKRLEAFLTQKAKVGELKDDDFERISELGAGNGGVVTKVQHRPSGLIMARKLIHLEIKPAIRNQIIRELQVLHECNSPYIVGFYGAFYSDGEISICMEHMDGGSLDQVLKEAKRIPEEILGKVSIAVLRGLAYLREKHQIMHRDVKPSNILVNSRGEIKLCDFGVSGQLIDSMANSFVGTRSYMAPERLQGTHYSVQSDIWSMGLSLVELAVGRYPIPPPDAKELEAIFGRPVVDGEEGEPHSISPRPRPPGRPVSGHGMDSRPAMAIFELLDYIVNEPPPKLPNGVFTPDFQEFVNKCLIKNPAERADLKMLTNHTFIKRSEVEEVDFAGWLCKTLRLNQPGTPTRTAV
Chain of CLK2 (human) (P49760 whole entry, looked up): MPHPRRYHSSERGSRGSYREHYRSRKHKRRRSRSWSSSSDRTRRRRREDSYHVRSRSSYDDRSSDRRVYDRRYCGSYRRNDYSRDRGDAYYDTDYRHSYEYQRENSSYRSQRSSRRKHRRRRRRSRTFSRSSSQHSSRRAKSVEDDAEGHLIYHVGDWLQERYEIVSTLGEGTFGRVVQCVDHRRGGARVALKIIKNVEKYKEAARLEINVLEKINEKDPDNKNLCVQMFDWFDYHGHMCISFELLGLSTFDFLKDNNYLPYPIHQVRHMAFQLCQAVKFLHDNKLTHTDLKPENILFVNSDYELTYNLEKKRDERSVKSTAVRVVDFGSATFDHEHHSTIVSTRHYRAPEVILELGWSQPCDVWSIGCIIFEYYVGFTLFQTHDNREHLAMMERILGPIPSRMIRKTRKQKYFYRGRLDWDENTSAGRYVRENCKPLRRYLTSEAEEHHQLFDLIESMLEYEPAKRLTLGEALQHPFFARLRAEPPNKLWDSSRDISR
Chain of TNK2 (human) (Q07912 whole entry, looked up): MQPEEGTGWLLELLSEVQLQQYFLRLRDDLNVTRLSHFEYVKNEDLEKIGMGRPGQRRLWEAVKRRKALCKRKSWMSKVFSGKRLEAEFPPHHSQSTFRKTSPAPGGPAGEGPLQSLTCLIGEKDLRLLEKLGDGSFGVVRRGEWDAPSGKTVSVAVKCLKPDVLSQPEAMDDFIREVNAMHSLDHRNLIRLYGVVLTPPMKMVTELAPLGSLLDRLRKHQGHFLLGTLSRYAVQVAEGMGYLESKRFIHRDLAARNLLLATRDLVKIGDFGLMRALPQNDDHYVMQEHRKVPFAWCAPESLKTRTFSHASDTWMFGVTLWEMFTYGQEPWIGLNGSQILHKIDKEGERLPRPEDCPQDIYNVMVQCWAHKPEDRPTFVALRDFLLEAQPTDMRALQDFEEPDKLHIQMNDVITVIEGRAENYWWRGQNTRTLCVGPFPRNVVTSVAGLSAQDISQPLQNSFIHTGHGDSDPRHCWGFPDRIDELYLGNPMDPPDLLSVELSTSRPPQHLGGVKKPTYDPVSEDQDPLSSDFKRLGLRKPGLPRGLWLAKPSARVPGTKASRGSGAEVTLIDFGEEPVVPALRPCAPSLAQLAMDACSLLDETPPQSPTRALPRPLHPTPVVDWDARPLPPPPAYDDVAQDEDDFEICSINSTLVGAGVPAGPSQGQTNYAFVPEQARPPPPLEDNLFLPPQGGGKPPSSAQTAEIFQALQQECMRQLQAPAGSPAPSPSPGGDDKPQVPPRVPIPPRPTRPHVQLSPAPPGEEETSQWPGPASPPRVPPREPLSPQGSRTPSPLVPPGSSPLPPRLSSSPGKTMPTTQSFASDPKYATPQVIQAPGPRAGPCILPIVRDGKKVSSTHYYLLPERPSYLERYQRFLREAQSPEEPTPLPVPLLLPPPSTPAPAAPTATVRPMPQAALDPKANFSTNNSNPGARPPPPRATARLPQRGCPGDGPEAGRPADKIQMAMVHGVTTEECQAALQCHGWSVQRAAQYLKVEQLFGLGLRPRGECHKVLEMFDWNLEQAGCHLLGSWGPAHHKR

## Cc1cc([C@@H](C)Nc2ccccc2C(=O)O)c2nc(N3CCOCC3)cc(=O)n2c1
ZAP70 (human)
  kinase still bound, per cent of control: 72%
BRSK2 (human)
  kinase still bound, per cent of control: 94%
AAK1 (human)
  kinase still bound, per cent of control: 91%
SBK1 (human)
  kinase still bound, per cent of control: 100%
GRK1 (human)
  kinase still bound, per cent of control: 81%
MAPK12 (human)
  kinase still bound, per cent of control: 82%
[1]
  kinase still bound, per cent of control: 93%
KIT (human)
  kinase still bound, per cent of control: 69%
ERN1 (human)
  kinase still bound, per cent of control: 100%
EPHA6 (human)
  kinase still bound, per cent of control: 100%
PRKX (human)
  kinase still bound, per cent of control: 100%
STK16 (human)
  kinase still bound, per cent of control: 99%
[2]
  kinase still bound, per cent of control: 100%
CAMK4 (human)
  kinase still bound, per cent of control: 100%
BMX (human)
  kinase still bound, per cent of control: 82%
DAPK3 (human)
  kinase still bound, per cent of control: 78%
EPHA2 (human)
  kinase still bound, per cent of control: 99%
[3]
  kinase still bound, per cent of control: 76%
CLK2 (human)
  kinase still bound, per cent of control: 100%
STK35 (human)
  kinase still bound, per cent of control: 96%
HIPK2 (human)
  kinase still bound, per cent of control: 77%
DMPK (human)
  kinase still bound, per cent of control: 95%
TNK2 (human)
  kinase still bound, per cent of control: 100%
ACVR2B (human)
  kinase still bound, per cent of control: 100%
SGK110 (human)
  kinase still bound, per cent of control: 68%
DCLK3 (human)
  kinase still bound, per cent of control: 100%
SGK3 (human)
  kinase still bound, per cent of control: 100%
PIP5K1C (human)
  kinase still bound, per cent of control: 55%
NEK1 (human)
  kinase still bound, per cent of control: 100%
[4]
  kinase still bound, per cent of control: 90%
STK38L (human)
  kinase still bound, per cent of control: 92%
PKN2 (human)
  kinase still bound, per cent of control: 74%
STK36 (human)
  kinase still bound, per cent of control: 82%
CDKL1 (human)
  kinase still bound, per cent of control: 100%
PHKG1 (human)
  kinase still bound, per cent of control: 100%
FRK (human)
  kinase still bound, per cent of control: 47%
CDKL3 (human)
  kinase still bound, per cent of control: 96%
EPHB4 (human)
  kinase still bound, per cent of control: 95%
MAP2K2 (human)
  kinase still bound, per cent of control: 98%
MAP2K3 (human)
  kinase still bound, per cent of control: 99%
PHKG2 (human)
  kinase still bound, per cent of control: 67%
FGR (human)
  kinase still bound, per cent of control: 76%
